Assay results published in ChEMBL document CHEMBL1128988, “The antiinfluenza activity of pyrrolo[2,3-d]pyrimidines” (Bioorg Med Chem Lett, 1996).

Experiments:
[1] = test system: Influenza A virus; assay: In vitro antiinfluenza activity against influenza virus A strain; assay type: functional, organism-based
[2] = test system: Influenza B virus; assay: In vitro antiinfluenza activity against influenza virus B strain; assay type: functional, organism-based
[3] = Lethal dose against mice upon intraperitoneal administration; assay type: toxicity; settings: mouse, in vivo, ip
[4] = Lethal dose against mice upon oral administration; assay type: toxicity; settings: mouse, in vivo

Cc1nc(NCCc2cccc(N3CCCC3)c2)c2cc[nH]c2n1
IC50 [1]: 23.9 µM

Cc1nc(NCc2cccc(N3CCCC3)c2)c2cc[nH]c2n1
IC50 [2]: 6.4 µM
IC50 [1]: 4.8 µM

Cc1nc(NCCc2cccc(N3CCCCC3)c2)c2cc[nH]c2n1
IC50 [1]: 28.6 µM

Cc1nc2nccc-2c(NCCc2cccc(N(C)C)c2)[nH]1
IC50 [1]: 55 µM

Cc1nc(NCc2cccc(N3CCCCC3)c2)c2cc[nH]c2n1
LD50 [3]: > 500 mg/kg
IC50 [2]: 5.1 µM
LD50 [4]: > 500 mg/kg
IC50 [1]: 2.3 µM

Cc1nc2nccc-2c(NCc2cccc(N(C)C)c2)[nH]1
IC50 [2]: < 100 µM
IC50 [1]: 18 µM

Cc1nc(NCCc2ccccc2)c2cc[nH]c2n1
IC50 [1]: 38.4 µM

NC12CC3CC(CC(C3)C1)C2 [AMANTADINE]
IC50 [1]: 1.25 µM

Cc1nc(NCc2ccccc2)c2cc[nH]c2n1 [ROLODINE]
IC50 [1]: > 100 µM
